The record followed here is patent US20150133426A1, “SUBSTITUTED PYRROLOPYRIMIDINES” (BAYER PHARMA AKTIENGESELLSCHAFT, priority 2012, published 2015).

The structures appear in SMILES notation. Bounds are passed on as bounds.

In general, IC50 refers to the concentration that inhibits the measured activity by half. Read a low IC50 as inhibition by little substance.

T1 sequence (Q9BUB5 1-424 isoform Q9BUB5-2 T344D): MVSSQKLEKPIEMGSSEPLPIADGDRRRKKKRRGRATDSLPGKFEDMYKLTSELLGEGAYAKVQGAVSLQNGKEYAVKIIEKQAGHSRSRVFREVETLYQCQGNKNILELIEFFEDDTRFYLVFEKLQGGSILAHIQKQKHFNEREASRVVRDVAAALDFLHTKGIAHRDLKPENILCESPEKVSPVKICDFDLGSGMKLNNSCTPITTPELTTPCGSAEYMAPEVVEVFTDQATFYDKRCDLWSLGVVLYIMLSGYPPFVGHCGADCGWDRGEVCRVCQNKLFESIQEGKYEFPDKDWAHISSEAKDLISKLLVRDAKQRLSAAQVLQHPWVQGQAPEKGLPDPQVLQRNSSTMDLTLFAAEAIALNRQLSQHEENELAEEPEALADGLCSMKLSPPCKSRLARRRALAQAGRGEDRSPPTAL

The experiment addresses T1, human full-length MKNK1 (Homo sapiens, UniProt Q9BUB5, T385D).
T1 construct: purchased Carna Biosciences 02-145; host or cells: insect cells, baculovirus expression system
The experiment can be described thus: MKNK1 kinase high ATP assay (TR-FRET). Conditions: high ATP (2 mM), 15 min preincubation with enzyme, GST-MKNK1 (T344D). It is filed as biochemical. In short, it runs like this: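 GST-tagged full-length human MKNK1 (aa 1-424, T344D), baculovirus-expressed, preincubated 15 min with compound, then reacted 30 min at 22 °C with 2 mM ATP and 0.06 µM biotinylated peptide (final).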
For orientation: TR-FRET usually uses a lanthanide donor and a delayed reading to cut background.
`COc1ccc(F)cc1Nc1ncnc2[nH]c3c(c12)CC(C(=O)NCCCS(C)(=O)=O)CC3` (racemic) [Example 39, (RS)-4-[(5-Fluoro-2-methoxyphenyl)amino]-N-[3-(methylsulfonyl)propyl]-6,7,8,9-tetrahydro-5H-pyrimido[4,5-b]indole-6-carboxamide]: half-maximal inhibition (IC50) was put at 59 nM.
For the molecule `COc1ccc(Nc2ncnc3[nH]c4c(c23)CC(C(=O)NCCCS(C)(=O)=O)CC4)c(OC)c1` (racemic) [Example 73, (RS)-4-[(2,4-Dimethoxyphenyl)amino]-N-[3-(methylsulfonyl)propyl]-6,7,8,9-tetrahydro-5H-pyrimido[4,5-b]indole-6-carboxamide], the IC50 stood at 4140 nM.
In turn, `O=C1OCCOc2cc(F)ccc2Nc2ncnc3[nH]c4c(c23)CC1CC4` (racemic) [Example 229, (RS)-11-Fluoro-1,3,4,7,8,14-hexahydro-5H-2,4-ethano-6,9-dioxa-1,14,15,17-tetraazabenzo[5,6]cyclotrideca[1,2,3-cd]inden-5-one] registered an IC50 of 3540 nM. The IC50 values of the last two molecules are within 1.5-fold of each other.
With `Cc1nc2c(Nc3ncnc4[nH]c5c(c34)CC(C(=O)NCCCS(C)(=O)=O)CC5)cccc2[nH]1` (racemic) [Example 169, (RS)-4-[(2-Methyl-1H-benzimidazol-4-yl)amino]-N-[3-(methylsulfonyl)propyl]-6,7,8,9-tetrahydro-5H-pyrimido[4,5-b]indole-6-carboxamide], the IC50 was determined as 2700 nM.
In the case of `Cc1cc(=O)oc2cc(Nc3ncnc4[nH]c5c(c34)CC(C(=O)NCCCS(C)(=O)=O)CC5)ccc12` (racemic) [Example 33, (RS)-4-[(4-Methyl-2-oxo-2H-chromen-7-yl)amino]-N-[3-(methylsulfonyl)propyl]-6,7,8,9-tetrahydro-5H-pyrimido[4,5-b]indole-6-carboxamide] it was 394 nM; in that of `COc1ccc(C(F)(F)F)cc1Nc1ncnc2[nH]c3c(c12)CC(C(=O)NC(C)C)CC3` (racemic) [Example 213, (RS)-4-{[2-Methoxy-5-(trifluoromethyl)phenyl]amino}-N-(propan-2-yl)-6,7,8,9-tetrahydro-5H-pyrimido[4,5-b]indole-6-carboxamide], 103 nM.
In the case of `COc1cc2[nH]c(=O)[nH]c2cc1Nc1ncnc2[nH]c3c(c12)CC(C(=O)NCCCS(C)(=O)=O)CC3` (racemic) [Example 164, (RS)-4-[(6-Methoxy-2-oxo-2,3-dihydro-1H-benzimidazol-5-yl)amino]-N-[3-(methylsulfonyl)propyl]-6,7,8,9-tetrahydro-5H-pyrimido[4,5-b]indole-6-carboxamide] it was 225 nM; in that of `O=S1(=O)CCc2[nH]c3ncnc(Nc4ccc5[nH]ncc5c4)c3c2C1` [Example 83, N-(1H-Indazol-5-yl)-5,7,8,9-tetrahydrothiopyrano[3′,4′:4,5]pyrrolo[2,3-d]pyrimidin-4-amine 6,6-dioxide], 62 nM; in that of `FC1(F)CCc2[nH]c3ncnc(Nc4ccc5[nH]ncc5c4)c3c2C1` [Example 10, 6,6-Difluoro-N-(1H-indazol-5-yl)-6,7,8,9-tetrahydro-5H-pyrimido[4,5-b]indol-4-amine], 24 nM.
In the case of `CS(=O)(=O)CCCNC(=O)C1CCc2[nH]c3ncnc(Nc4ccc(OC(F)F)cc4)c3c2C1` (racemic) [Example 31, (RS)-4-{[4-(Difluoromethoxy)phenyl]amino}-N-[3-(methylsulfonyl)propyl]-6,7,8,9-tetrahydro-5H-pyrimido[4,5-b]indole-6-carboxamide] it was 2750 nM.
The molecule `CS(=O)(=O)CCCNC(=O)C1CCc2[nH]c3ncnc(Nc4cccc(-c5cnco5)c4)c3c2C1` (racemic) [Example 55, (RS)—N-[3-(Methylsulfonyl)propyl]-4-{[3-(1,3-oxazol-5-yl)phenyl]amino}-6,7,8,9-tetrahydro-5H-pyrimido[4,5-b]indole-6-carboxamide] displayed an IC50 of 511 nM. Against the preceding molecule, the IC50 is about 5.4-fold lower.
In the case of `COc1cc(F)c(F)cc1Nc1ncnc2[nH]c3c(c12)CC(C(=O)NCCCS(C)(=O)=O)CC3` (racemic) [Example 161, (RS)-4-[(4,5-Difluoro-2-methoxyphenyl)amino]-N-[3-(methylsulfonyl)propyl]-6,7,8,9-tetrahydro-5H-pyrimido[4,5-b]indole-6-carboxamide] it was 35 nM.
Next, `COc1cc(Nc2ncnc3[nH]c4c(c23)CC(C(=O)NCCCS(C)(=O)=O)CC4)ccc1F` (racemic) [Example 34, (RS)-4-[(4-Fluoro-3-methoxyphenyl)amino]-N-[3-(methylsulfonyl)propyl]-6,7,8,9-tetrahydro-5H-pyrimido[4,5-b]indole-6-carboxamide]: 306 nM; `COCC1(OC)CCc2[nH]c3ncnc(Nc4cc5cn[nH]c5cc4OC(C)C)c3c2C1` (racemic) [Example 231, (RS)-6-Methoxy-6-(methoxymethyl)-N-[6-(propan-2-yloxy)-1H-indazol-5-yl]-6,7,8,9-tetrahydro-5H-pyrimido[4,5-b]indol-4-amine]: 50 nM; `CC(C)Oc1cc(F)ccc1Nc1ncnc2[nH]c3c(c12)CSCC3` [Example 11, N-(4-Fluoro-2-isopropoxyphenyl)-5,7,8,9-tetrahydrothiopyrano[3′,4′:4,5]pyrrolo[2,3-d]pyrimidin-4-amine]: 42 nM.
In turn, `CS(=O)(=O)CCCNC(=O)C1CCc2[nH]c3ncnc(Nc4ccc5c(c4)CS(=O)(=O)C5)c3c2C1` (racemic) [Example 40, (RS)-4-[(2,2-Dioxido-1,3-dihydro-2-benzothiophen-5-yl)amino]-N-[3-(methylsulfonyl)propyl]-6,7,8,9-tetrahydro-5H-pyrimido[4,5-b]indole-6-carboxamide] displayed an IC50 of 1160 nM. This IC50 lies about 28-fold higher than the previous one.
Next, `COc1cc2[nH]ncc2cc1Nc1ncnc2[nH]c3c(c12)CC(C(=O)NC(C)C)CC3` (racemic) [Example 216, (RS)-4-[(6-Methoxy-1H-indazol-5-yl)amino]-N-(propan-2-yl)-6,7,8,9-tetrahydro-5H-pyrimido[4,5-b]indole-6-carboxamide]: 5 nM; `Nc1cc(F)c([N+](=O)[O-])cc1Nc1ncnc2[nH]c3c(c12)CCCC3` [Example 109]: at least 20000 nM.
Turning to `COc1cc(Cl)c(Cl)cc1Nc1ncnc2[nH]c3c(c12)CC(C(=O)NCCCS(C)(=O)=O)CC3` (racemic) [Example 44, (RS)-4-[(4,5-Dichloro-2-methoxyphenyl)amino]-N-[3-(methylsulfonyl)propyl]-6,7,8,9-tetrahydro-5H-pyrimido[4,5-b]indole-6-carboxamide], 6 nM corresponded to half-maximal inhibition (IC50).
Next, `CS(=O)(=O)CCCNC(=O)C1CCc2[nH]c3ncnc(Nc4ccc5c(c4)OC(F)(F)O5)c3c2C1` (racemic) [Example 36, (RS)-4-[(2,2-Difluoro-1,3-benzodioxol-5-yl)amino]-N-[3-(methylsulfonyl)propyl]-6,7,8,9-tetrahydro-5H-pyrimido[4,5-b]indole-6-carboxamide]: 3170 nM.
Next, `Cc1ccc(Nc2ncnc3[nH]c4c(c23)CC(C(=O)NCCCS(C)(=O)=O)CC4)c(O)c1` (racemic) [Example 54, (RS)-4-[(2-Hydroxy-4-methylphenyl)amino]-N-[3-(methylsulfonyl)propyl]-6,7,8,9-tetrahydro-5H-pyrimido[4,5-b]indole-6-carboxamide]: 3080 nM.
